For the assay, the system named is papillary muscle of guinea-pig. The assay can be described thus: Myocardial contractility (developed tension) in isolated, electrically driven papillary muscle of guinea-pig. The settings on record: for change in developed tension: isolated guinea-pig papillary muscle, 1 Hz; for tension development (positive inotropic action) vs baseline: cumulative 10, 30 and 100 μM, n=5, FIG. 1. On the procedure:
[Test Example 1] Myocardial Contractility Enhancing Action of Pralmorelin in the Papillary Muscle of Guinea-Pig
The direct effect of pralmorelin on myocardial contractility was evaluated using the isolated cardiac muscle of guinea-pigs according to the standard method for evaluating myocardial contractility. • 1. Materials and Experimental Method • 1) Animal Used
Male Hartley guinea-pigs (body weight, 301-350 g; Japan SLC) were purchased. The animals were accommodated to an environment at a temperature of 23±2° C. and a humidity of 55±15% under 12-hr light/dark cycles while they were allowed to eat and drink water ad libitum until they weighed 360-480 g. Each test substance was tested on a group of five animals. • 2) Reagents Used
The test substances were pralmorelin dihydrochloride (KP-102), representatives of growth hormone secretagogues such as hexarelin, ghrelin and ibutamorelin methanesulfonate (the last being hereunder referred to as MK-0677) (which were prepared by the method described in JP 6-263737 A (kokai)), as well as a recombinant human growth hormone (Sumitomo Pharmaceutical) and amrinone (Sigma) which is a known therapeutic of acute heart failure. KP-102, hexarelin and MK-0677 were dissolved in distilled water. Ghrelin was dissolved in physiological saline. Amrinone was first dissolved in dimethyl sulfoxide and then diluted with physiological saline. The growth hormone was dissolved in a dedicated solubilizer (0.3 w/v % metacresol and 3.9 w/v % D-mannitol). None of the test substance solutions should be added in an amount exceeding 1 w/v %. All reagents other than the test substances were guaranteed products of Nacalai Tesque. • 3) Preparing Specimens of the Isolated Papillary Muscle
The guinea-pigs were stunned with a blow to the back of their head; thereafter, the carotid artery was incised and the animals were exsanguinated to death. The chest was opened, the blood vessels in the upper part of the heart were cut and the heart was removed. The heart was immediately transferred into a Krebs-Henseleit (K-H) nutrient solution (NaCl, 118.0 mM; KCl, 4.7 mM; CaCl2. 2H2O, 1.0 mM; KH2PO4, 1.2 mM; MgSO4.7H2O, 1.2 mM; NaHCO3, 25.0 mM; glucose, 11.0 mM) that had been fully aerated with 95% O2-5% CO2. The heart was fixed on a rubber-lined Petri dish with needles such that its front face was seen. The ventricular wall of the upper right ventricle (toward the atrium) was excised transversely along the atrium, then excised longitudinally along the interventricular septum so that the ventricular wall was opened to expose the right ventricular papillary muscle. Subsequently, the entire surface of the left ventricle was cut open from the aorta (down) to the apex and the anterior wall of the left ventricle was opened wide, to both right and left, and fixed to expose the papillary muscle of the left ventricle. The tricupsid or mitral valve was cut off from the ventricle and the papillary muscle was cut off at the base to prepare a specimen of papillary muscle. The base of the specimen was fixed to field stimulating electrodes in an organ bath filled with 15 mL of the nutrient solution. The tendinous cord adhering to the valve was tied up with a thread and connected to an FD pickup (TB-612T, Nihon Kohden). A resting tension of 0.5 g was loaded and the papillary muscle was driven with an electric stimulator (SEN-3201, Nihon Kohden) at a frequency of 1 Hz by pulses of 20-ms duration and at a voltage intensity about 1.2 times the threshold. After an equilibration period of about 1 hr, KP-102, hexarelin and amrinone were each applied cumulatively up to amounts of 10, 30 and 100 μM. After examination of the changes in inotropic action due to the application of the test substances, 12.5 mM of CaCl2 was added and the maximum tension that was developed by each specimen was obtained. […]

Where a SMILES comes first, the peptide text is derived from it. Where no end group is shown, it is not given here. [ ]: non-standard residue; d: D form. dTrp(2-Me) = Cc1[nH]c2ccccc2c1C[C@@H](N)C(=O)O

For the molecule `CC(C)(N)C(=O)N[C@H](COCc1ccccc1)C(=O)N1CCC2(CC1)CN(S(C)(=O)=O)c1ccccc12` [MK-0677, ibutamorelin methanesulfonate], the “change in developed tension” value (100 μM) is reported as “no changes in the developed tension”.

For the molecule `Nc1cc(-c2ccncc2)c[nH]c1=O` [amrinone], the “tension development (positive inotropic action) vs baseline” value was “increased in a concentration-dependent manner”.

Turning to `Cc1[nH]c2ccccc2c1C[C@@H](NC(=O)[C@@H](N)Cc1cnc[nH]1)C(=O)N[C@@H](C)C(=O)N[C@@H](Cc1c[nH]c2ccccc12)C(=O)N[C@H](Cc1ccccc1)C(=O)N[C@@H](CCCCN)C(N)=O` [hexarelin] (H-H[dTrp(2-Me)]AW[dF]K-NH2), the “tension development (positive inotropic action) vs baseline” value is “very weak and by no means significant over the baseline value”.

As for “ghrelin (GSSFLSPEHQRVQQRKESKKPPAKLQPR; ends and bridges not checked; UniProt Q9UBU3 24-51, looked up) [representative growth hormone secretagogue]”, the “change in developed tension” value (1 μM) is on record as “no changes in the developed tension”.

Turning to “recombinant human growth hormone: recombinant human growth hormone (Sumitomo Pharmaceutical)”, where the note is “0.2 IU/mL”, the “change in developed tension” value is given as “no changes in the developed tension”.

Values taken from patent US6878689B2, “Preventives or remedies for heart failure” (Kaken Pharmaceutical Co., Ltd., priority 2000, dated 2005).
